Among the data in ChEMBL document CHEMBL1152053, “Nonpeptide HIV protease inhibitors designed to replace a bound water” (Bioorg Med Chem Lett, 1993) are Ki values, retold here.

By Ki is commonly meant the dissociation constant of the complex between target and ligand, obtained from inhibition or displacement.

For this assay, the target named is Human immunodeficiency virus type 1 protease (Human immunodeficiency virus 1, UniProt Q72874). The assay is described as follows: Compound was evaluated for the inhibition of recombinant HIV-1 protease at 37 degrees C and pH of 6.
Take `OC[C@]1(Cc2ccccc2)C[C@H](O)C[C@](CO)(Cc2ccccc2)[C@H]1O`: the Ki was found to be 48 µM.

`OC[C@]1(Cc2ccccc2)C[C@H](O)C[C@](CO)(Cc2ccccc2)[C@@H]1O`: the Ki was 830 µM.

Take `OC1[C@@](O)(Cc2ccccc2)CCC[C@]1(O)Cc1ccccc1`: the Ki is above 2000 µM.

In the case of `O=C1C[C@](O)(Cc2ccccc2)C(O)[C@@](O)(Cc2ccccc2)C1`, the Ki turned out to be 10 µM.

As to `O[C@H]1C[C@H](Cc2ccccc2)[C@H](O)[C@@H](Cc2ccccc2)C1`, the Ki is above 2000 µM.

As to `O=C1C[C@](CO)(Cc2ccccc2)C(O)[C@@](CO)(Cc2ccccc2)C1`, the Ki stood at 62 µM.

Consider `[O-][S+]1C[C@](CO)(Cc2ccccc2)C(O)[C@@](CO)(Cc2ccccc2)C1` (stereo in doubt; (+)7), for which the Ki was determined as 7 µM.

Turning to `[O-][S+]1C[C@](CO)(Cc2ccccc2)C(O)[C@@](CO)(Cc2ccccc2)C1` (stereo in doubt; (-)7), the Ki was 19 µM.
